Source: ChEMBL document CHEMBL4831512 (J Med Chem, 2021)
pIC50: −log10 of the molar value. ≈ marks a conversion by molar mass, not a printed value. Calls of active or inactive are those of the source. No cut-off for these calls is given here.

Key:
[1] = in vitro; conditions: PAMPA
Description: Permeability of the compound at 500 uM incubated for 16 hrs by PAMPA

[2] = system: Blood; test: tissue or blood; assay type: functional, tissue-based; conditions: Homo sapiens
[3] = physchem; conditions: buffer, pH 6.8
Description: Equilibrium solubility of compound in buffer at pH 6.8 incubated over night under shaking condition by LC-MS/MS analysis

[4] = physchem; conditions: buffer, pH 6.8; remark: listed apart in the source
Description: Solubility of compound at pH 6.8 by shake flask method

[5] = in vivo; conditions: Sprague-Dawley, rat, po, 10 mg/kg
[6] = organism: Rattus norvegicus; conditions: dose 10-20 mg/kg, time 2.0 hrs
[7] = molecular target: 3',5'-cyclic-AMP phosphodiesterase 4D (Homo sapiens, UniProt Q08499)
Sequence of 3',5'-cyclic-AMP phosphodiesterase 4D (Q08499 whole entry): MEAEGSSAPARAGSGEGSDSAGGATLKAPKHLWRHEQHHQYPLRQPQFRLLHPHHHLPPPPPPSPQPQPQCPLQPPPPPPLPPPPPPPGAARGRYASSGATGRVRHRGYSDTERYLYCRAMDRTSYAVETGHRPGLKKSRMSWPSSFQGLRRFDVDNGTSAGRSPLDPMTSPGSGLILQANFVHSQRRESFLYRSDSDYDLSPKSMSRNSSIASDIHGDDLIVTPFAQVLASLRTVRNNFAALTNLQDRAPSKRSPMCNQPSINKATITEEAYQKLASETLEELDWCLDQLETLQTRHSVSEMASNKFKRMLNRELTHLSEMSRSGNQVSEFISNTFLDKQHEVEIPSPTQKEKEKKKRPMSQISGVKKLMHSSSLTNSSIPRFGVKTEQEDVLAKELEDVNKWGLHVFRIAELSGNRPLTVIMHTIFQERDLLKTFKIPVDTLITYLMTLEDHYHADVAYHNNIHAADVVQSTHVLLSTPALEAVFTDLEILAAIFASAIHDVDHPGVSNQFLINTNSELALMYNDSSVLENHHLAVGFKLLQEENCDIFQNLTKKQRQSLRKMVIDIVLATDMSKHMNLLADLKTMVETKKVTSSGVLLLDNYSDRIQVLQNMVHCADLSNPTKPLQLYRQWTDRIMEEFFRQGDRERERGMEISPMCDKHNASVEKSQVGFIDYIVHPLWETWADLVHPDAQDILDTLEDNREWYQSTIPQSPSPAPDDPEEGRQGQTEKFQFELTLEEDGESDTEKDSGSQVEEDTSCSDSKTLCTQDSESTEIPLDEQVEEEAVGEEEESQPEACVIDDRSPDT
Description: Binding affinity to PDE4d (unknown origin)

[8] = in vivo; conditions: Sprague-Dawley, rat, po, 300 mg/kg
[9] = in vivo; conditions: Sprague-Dawley, rat, po, 100 mg/kg
[10] = physchem; conditions: simulated gi fluid, pH 1
Description: Solubility of compound in stimulated gastric fluid at pH 1 using crystalline form of sample by shake flask method

[11] = in vivo; conditions: Sprague-Dawley, rat, po, 10 mg/kg; remark: listed apart in the source
[12] = in vivo; conditions: Sprague-Dawley, rat, po, 300 mg/kg; remark: listed apart in the source
[13] = physchem; conditions: simulated gi fluid
Description: Solubility of compound in fed state simulated intestinal fluid by shake flask method

[14] = organism: Rattus norvegicus; conditions: dose 20.0 mg/kg, time 2.0 hrs
[15] = in vivo; conditions: Sprague-Dawley, rat, po, 100 mg/kg; remark: listed apart in the source
[16] = in vivo; conditions: Sprague-Dawley, rat, po, 100 mg/kg; remark: listed apart in the source
[17] = in vivo; conditions: Sprague-Dawley, rat, po, 300 mg/kg; remark: listed apart in the source
[18] = in vivo; conditions: Sprague-Dawley, rat, po, 10 mg/kg; remark: listed apart in the source
[19] = in vivo; conditions: Sprague-Dawley, rat, iv, 1 mg/kg
[20] = molecular target: T1, Phosphatidylinositol 4,5-bisphosphate 3-kinase catalytic subunit delta isoform (Homo sapiens, UniProt O00329); assay type: cell-based, Fibroblast
T1 sequence (O00329 whole entry): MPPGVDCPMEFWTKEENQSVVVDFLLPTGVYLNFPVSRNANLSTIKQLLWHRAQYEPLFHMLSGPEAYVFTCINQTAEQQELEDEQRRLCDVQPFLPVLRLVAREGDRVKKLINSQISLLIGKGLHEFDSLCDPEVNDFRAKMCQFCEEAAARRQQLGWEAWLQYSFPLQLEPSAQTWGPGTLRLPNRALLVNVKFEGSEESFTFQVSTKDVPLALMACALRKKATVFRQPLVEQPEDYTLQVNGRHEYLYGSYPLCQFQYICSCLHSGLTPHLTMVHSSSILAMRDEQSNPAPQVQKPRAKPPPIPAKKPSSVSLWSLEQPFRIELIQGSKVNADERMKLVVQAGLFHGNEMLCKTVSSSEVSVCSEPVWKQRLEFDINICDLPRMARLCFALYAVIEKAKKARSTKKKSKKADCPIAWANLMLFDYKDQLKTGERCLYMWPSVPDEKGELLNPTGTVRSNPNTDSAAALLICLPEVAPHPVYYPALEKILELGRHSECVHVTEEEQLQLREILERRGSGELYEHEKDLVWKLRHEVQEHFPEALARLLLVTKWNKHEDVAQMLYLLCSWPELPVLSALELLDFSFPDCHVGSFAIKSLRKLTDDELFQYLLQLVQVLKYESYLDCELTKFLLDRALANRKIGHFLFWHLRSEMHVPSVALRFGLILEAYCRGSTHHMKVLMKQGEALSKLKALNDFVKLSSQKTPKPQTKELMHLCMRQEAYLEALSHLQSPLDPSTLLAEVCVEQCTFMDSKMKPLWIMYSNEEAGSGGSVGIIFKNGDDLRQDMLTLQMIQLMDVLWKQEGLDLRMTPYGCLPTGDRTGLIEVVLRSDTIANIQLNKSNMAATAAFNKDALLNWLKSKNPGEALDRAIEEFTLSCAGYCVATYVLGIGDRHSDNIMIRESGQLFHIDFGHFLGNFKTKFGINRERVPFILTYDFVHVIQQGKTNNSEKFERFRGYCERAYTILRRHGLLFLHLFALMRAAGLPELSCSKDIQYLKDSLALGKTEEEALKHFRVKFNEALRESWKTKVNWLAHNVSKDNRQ
Description: Inhibition of human PI3Kdelta expressed in rat fibroblast cells assessed as reduction in AKT phosphorylation at Ser473 residue incubated for 1 hr by AlphaScreen assay

[21] = molecular target: T2, Phosphatidylinositol 4,5-bisphosphate 3-kinase catalytic subunit beta isoform (Homo sapiens, UniProt P42338)
T2 sequence (P42338 whole entry, canonical isoform): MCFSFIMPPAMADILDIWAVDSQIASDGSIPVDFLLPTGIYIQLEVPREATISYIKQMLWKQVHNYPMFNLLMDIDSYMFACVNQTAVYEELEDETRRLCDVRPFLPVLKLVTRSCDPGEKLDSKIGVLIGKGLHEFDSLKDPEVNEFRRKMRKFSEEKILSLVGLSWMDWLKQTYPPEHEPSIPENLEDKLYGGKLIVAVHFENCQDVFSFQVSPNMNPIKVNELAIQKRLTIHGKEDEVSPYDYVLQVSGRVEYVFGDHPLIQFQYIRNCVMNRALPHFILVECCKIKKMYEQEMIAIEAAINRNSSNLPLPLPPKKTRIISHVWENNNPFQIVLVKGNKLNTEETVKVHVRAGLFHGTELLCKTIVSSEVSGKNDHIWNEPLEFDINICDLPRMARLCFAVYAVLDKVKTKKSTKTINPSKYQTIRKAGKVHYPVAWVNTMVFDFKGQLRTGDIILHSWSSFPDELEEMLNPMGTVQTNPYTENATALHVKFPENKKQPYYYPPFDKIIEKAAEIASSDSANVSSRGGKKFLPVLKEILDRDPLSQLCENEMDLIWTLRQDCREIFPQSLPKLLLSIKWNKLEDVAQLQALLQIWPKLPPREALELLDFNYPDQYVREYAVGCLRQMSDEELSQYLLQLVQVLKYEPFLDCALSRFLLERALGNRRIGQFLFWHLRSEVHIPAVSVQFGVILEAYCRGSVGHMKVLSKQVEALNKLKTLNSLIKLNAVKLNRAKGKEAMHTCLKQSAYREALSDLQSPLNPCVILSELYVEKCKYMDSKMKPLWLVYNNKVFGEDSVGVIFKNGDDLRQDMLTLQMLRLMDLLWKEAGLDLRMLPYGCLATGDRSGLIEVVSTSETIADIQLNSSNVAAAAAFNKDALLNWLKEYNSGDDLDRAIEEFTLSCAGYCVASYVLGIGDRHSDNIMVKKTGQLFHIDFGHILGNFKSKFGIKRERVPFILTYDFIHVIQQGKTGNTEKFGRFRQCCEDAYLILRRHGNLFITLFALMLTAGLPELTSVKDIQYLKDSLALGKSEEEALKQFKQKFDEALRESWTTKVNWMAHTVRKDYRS

[22] = molecular target: T3, Phosphatidylinositol 4,5-bisphosphate 3-kinase catalytic subunit alpha isoform (Homo sapiens, UniProt P42336); assay type: cell-based, Fibroblast
T3 sequence (P42336 whole entry, canonical isoform): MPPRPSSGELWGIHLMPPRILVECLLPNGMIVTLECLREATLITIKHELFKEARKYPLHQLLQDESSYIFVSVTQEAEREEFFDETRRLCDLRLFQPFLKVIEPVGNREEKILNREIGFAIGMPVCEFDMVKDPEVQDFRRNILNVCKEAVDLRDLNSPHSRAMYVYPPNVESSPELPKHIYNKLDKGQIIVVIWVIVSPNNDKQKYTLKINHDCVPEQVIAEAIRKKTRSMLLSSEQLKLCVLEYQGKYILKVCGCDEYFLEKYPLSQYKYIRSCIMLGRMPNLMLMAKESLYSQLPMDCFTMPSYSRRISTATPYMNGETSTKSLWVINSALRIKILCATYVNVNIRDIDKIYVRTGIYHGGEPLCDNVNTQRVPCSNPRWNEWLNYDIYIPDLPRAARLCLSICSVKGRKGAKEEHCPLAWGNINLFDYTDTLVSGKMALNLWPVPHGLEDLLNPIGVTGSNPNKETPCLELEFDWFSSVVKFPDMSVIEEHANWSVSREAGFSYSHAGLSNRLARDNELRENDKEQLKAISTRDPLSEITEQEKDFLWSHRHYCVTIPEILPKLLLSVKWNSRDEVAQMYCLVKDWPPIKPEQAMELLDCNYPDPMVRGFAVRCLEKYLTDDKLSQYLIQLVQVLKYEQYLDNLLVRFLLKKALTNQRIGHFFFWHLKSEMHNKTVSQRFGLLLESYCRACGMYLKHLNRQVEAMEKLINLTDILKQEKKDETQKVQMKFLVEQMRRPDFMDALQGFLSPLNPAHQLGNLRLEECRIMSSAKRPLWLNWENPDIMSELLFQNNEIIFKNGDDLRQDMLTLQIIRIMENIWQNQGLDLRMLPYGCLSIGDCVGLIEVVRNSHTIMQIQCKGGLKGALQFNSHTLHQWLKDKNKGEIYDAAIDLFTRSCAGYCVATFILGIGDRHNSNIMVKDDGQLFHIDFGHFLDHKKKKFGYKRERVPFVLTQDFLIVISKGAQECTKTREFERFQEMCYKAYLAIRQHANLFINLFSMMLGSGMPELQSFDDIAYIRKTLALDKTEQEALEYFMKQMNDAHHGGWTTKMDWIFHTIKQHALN
Description: Inhibition of human PI3Kalpha expressed in rat fibroblast cells assessed as reduction in AKT phosphorylation at Ser473 residue incubated for 1 hr by AlphaScreen assay

[23] = molecular target: T1, Phosphatidylinositol 4,5-bisphosphate 3-kinase catalytic subunit delta isoform
[24] = molecular target: T3, Phosphatidylinositol 4,5-bisphosphate 3-kinase catalytic subunit alpha isoform
[25] = molecular target: T2, Phosphatidylinositol 4,5-bisphosphate 3-kinase catalytic subunit beta isoform; assay type: cell-based, Fibroblast
Description: Inhibition of human PI3Kbeta expressed in rat fibroblast cells assessed as reduction in AKT phosphorylation at Ser473 residue incubated for 1 hr by AlphaScreen assay

[26] = in vivo; conditions: Sprague-Dawley, rat, iv, 1 mg/kg; remark: listed apart in the source

Compound: Cc1ncc(-c2nc(-c3cc(S(=O)(=O)NCCC(C)(C)O)ccc3C)cnc2N)s1
- Fa at 16 h, 500 µM [1]: 35%

Compound: Cc1ccn(-c2nc(-c3cc(S(=O)(=O)NCC(C)(C)O)ccc3C)cnc2N)n1
- Fa at 16 h, 500 µM [1]: 96%

Compound: Cc1ccc(S(=O)(=O)NCC(C)(C)O)cc1-c1cnc(N)c(-c2nn(C)nc2C)n1
- Fa at 16 h, 500 µM [1]: 81%

Compound: Cc1ccc(S(=O)(=O)NCC(C)(C)O)cc1-c1cnc(N)c(-c2cn(C)nc2C)n1
- Fa at 16 h, 500 µM [1]: 24%

Compound: Cc1nnc(-c2cc(-c3cc(S(=O)(=O)NCC(C)(C)O)ccc3C)cnc2N)o1
- Fa at 16 h, 500 µM [1]: 27%

Compound: Cc1ncc(-c2cc(-c3cc(S(=O)(=O)NCC(C)(C)O)ccc3C)cnc2N)s1
- Fa at 16 h, 500 µM [1]: 43%
- pIC50 [2]: 5.74
- solubility thermodynamic [3]: 52 µg/mL (≈ 120 µM)

Compound: Cc1cc(-c2nc(-c3cc(S(=O)(=O)NCC(C)(C)O)ccc3C)cnc2N)on1
- Fa at 16 h, 500 µM [1]: 43%

Compound: Cc1ncc(-c2nc(-c3cc(S(=O)(=O)NC4CCC(F)(F)CC4)ccc3C)cnc2N)s1
- Fa at 16 h, 500 µM [1]: 96%

Compound: Cc1ccc(S(=O)(=O)NCC(C)(C)O)cc1-c1cnc(N)c(-c2cnn(C)n2)c1
- Fa at 16 h, 500 µM [1]: 52%
- pIC50 [2]: 6.03
- solubility thermodynamic [3]: 290 µg/mL (≈ 696 µM)

Compound: Cc1ncc(-c2nc(-c3cc(S(=O)(=O)NCCCO)ccc3C)cnc2N)s1
- Fa at 16 h, 500 µM [1]: 27%

Compound: Cc1ccc(S(=O)(=O)NCC(C)(C)O)cc1-c1cnc(N)c(-n2cncn2)n1
- Fa at 16 h, 500 µM [1]: 27%

Compound: Cc1ccc(S(=O)(=O)NCC(C)(C)O)cc1-c1cnc(N)c(-c2cnn(C)c2C)c1
- Fa at 16 h, 500 µM [1]: < 35%

Compound: Cc1ncc(-c2nc(-c3cc(S(=O)(=O)NCC(C)(C)O)ccc3C)cnc2N)s1
- Fa at 16 h, 500 µM [1]: 43%

Compound: Cc1ccc(S(=O)(=O)NCC(C)(C)O)cc1-c1cnc(N)c(-n2cncn2)c1
- Fa at 16 h, 500 µM [1]: < 27%

Compound: Cc1ncc(-c2cc(-c3cc(S(=O)(=O)NCC(C)(C)O)ccc3C)cnc2N)o1
- solubility thermodynamic [4]: 4 µg/mL (≈ 9.6 µM)
- bioavailability [5]: 72%
- inhibition [6]: Dose-Dependent Effect
- pIC50 [7]: 5.96
- bioavailability [8]: 122%
- Cmax [9]: 12.2 µM
- solubility thermodynamic [10]: 532 µg/mL (≈ 1280 µM)
- AUC(0-t) at 24 h [11]: 9.75 µM·h
- Cmax [12]: 25.2 µM
- solubility thermodynamic [13]: 200 µg/mL (≈ 480 µM)
- inhibition [14]: Active
- AUC(0-t) at 24 h [15]: 128 µM·h
- bioavailability [16]: 94%
- Fa at 16 h, 500 µM [1]: < 27%
- AUC(0-t) at 24 h [17]: 397 µM·h
- pIC50 [2]: 6.07
- Cmax [18]: 1.53 µM
- solubility thermodynamic [3]: 270 µg/mL (≈ 648 µM)
- clearance [19]: 30 mL/min/kg

Compound: CCn1nnc(CCNC(=O)Nc2nc(C)c(-c3ccc(S(C)(=O)=O)c(F)c3)s2)n1
- pIC50 [20]: 5.39
- pIC50 [21]: 6.44
- pIC50 [22]: < 5.00
- pIC50 [23]: 6.02
- pIC50 [2]: 5.15
- pIC50 [24]: 5.52
- pIC50 [25]: 5.63

Compound: Cc1ncc(-c2nc(-c3cc(S(=O)(=O)NCCO)ccc3C)cnc2N)s1
- Fa at 16 h, 500 µM [1]: 35%

Compound: Cc1ncc(-c2nc(-c3cc(S(=O)(=O)N[C@H]4CC[C@H](O)CC4)ccc3C)cnc2N)s1
- Fa at 16 h, 500 µM [1]: < 21%

Compound: Cc1ccc(S(=O)(=O)N[C@H]2CC[C@H](O)CC2)cc1-c1cnc(N)c(C(=O)C2CC2)n1
- half-life [26]: 4.6 h

Compound: Cc1cnn(-c2cc(-c3cc(S(=O)(=O)NCC(C)(C)O)ccc3C)cnc2N)c1
- Fa at 16 h, 500 µM [1]: 68%
- solubility thermodynamic [3]: 30 µg/mL (≈ 72.2 µM)

Compound: Cc1ccc(S(=O)(=O)NCC(C)(C)O)cc1-c1cnc(N)c(-c2cnn(C)n2)n1
- Fa at 16 h, 500 µM [1]: 60%

Compound: Cc1noc(-c2cc(-c3cc(S(=O)(=O)NCC(C)(C)O)ccc3C)cnc2N)n1
- solubility thermodynamic [4]: 16 µg/mL (≈ 38.3 µM)
- bioavailability [5]: 66%
- solubility thermodynamic [10]: 1020 µg/mL (≈ 2460 µM)
- AUC(0-t) at 24 h [11]: 17.1 µM·h
- solubility thermodynamic [13]: 92 µg/mL (≈ 220 µM)
- Fa at 16 h, 500 µM [1]: 81%
- Cmax [18]: 3.29 µM
- solubility thermodynamic [3]: 160 µg/mL (≈ 383 µM)
- clearance [19]: 15 mL/min/kg
